Measurements published in patent US11656221B2, “Methods to identify modulators of actin-binding proteins” (Regents of the University of Minnesota, priority 2019, dated 2023).
Entries after “also recorded” stand apart in the source; their conditions may differ.

How the values were obtained:
ABD-L253P = target: T1, ABD-L253P (Homo sapiens, UniProt O15020, L253P); assay: Sedimentation of ABD L253P without actin (aggregation); details: 1.6 μM
T1 construct: His-SUMO (cleaved yes); made in house; host or cells: E. coli BL21(DE3), pE-SUMOpro
T1 sequence (O15020 1-284 L253P): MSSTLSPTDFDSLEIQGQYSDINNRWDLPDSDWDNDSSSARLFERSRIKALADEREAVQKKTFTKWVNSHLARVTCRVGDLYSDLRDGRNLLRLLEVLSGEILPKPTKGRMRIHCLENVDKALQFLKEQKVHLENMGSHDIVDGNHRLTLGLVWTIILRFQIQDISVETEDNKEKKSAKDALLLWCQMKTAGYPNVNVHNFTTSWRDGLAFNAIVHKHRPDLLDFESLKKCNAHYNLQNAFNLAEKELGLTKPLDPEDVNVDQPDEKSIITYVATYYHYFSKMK
Procedure: F-actin and ABD binding assays were performed as previously described. In brief, binding assays used 1 μM ABD protein, 1 μM F-actin and 1-50 μM compound (as indicated) or DMSO control for a total reaction volume of 60 μL in F-buffer containing 10 mM Tris, pH 7.5, 150 mM NaCl, 0.5 mM ATP, 2 mM MgCl2, and 1 mM DTT. Following 30 min incubation at room temperature (21° C.). F-actin was pelleted using centrifugation at 100,000×g at 25° C. for 30 min. Unbound ABD in the supernatant was measured following SDS-PAGE and Coomassie blue staining in accord. In addition, control co-sedimentations assays that lacked actin were performed to test if compounds cause ABD aggregation. F-actin and Lifeact-mCherry binding assays were undertaken with 2 μM Lifeact-mCherry, 30 μM F-actin and 1-50 μM compound (as indicated) or DMSO control for a total reaction volume of 80 μL in F-buffer. For a no-actin binding control, an assay sample with no F-actin was also set up. Binding reactions were allowed to reach equilibrium at room temperature (21° C.) for 30 min and then F-actin was pelleted by centrifugation at 100,000×g at 25° C. for 30 min. The amount of unbound Lifeact-mCherry was sampled by loading 7 μL of spin supernatant on a low volume black bottom 384-well plate (Greiner). Amount of mCherry was determined by acquiring fluorescence spectrum peak intensity at ˜600 nm using a spectral unmixing plate reader (Fluorescence Innovations, Inc) equipped with a 532 nm laser (Laserglow Technologies, Ontario, Canada) for excitation, 532 nm longpass filter for emission, and PMT for emission detection. The fraction of Lifeact-mCherry bound to F-actin was determined by subtracting from one the fraction of supernatant fluorescence intensity relative to the no-actin control sample, using the following equation: […]
In addition to a reduction in cell viability, the primary and counter screen may be sensitive to compounds that promote ABD-L253P protein aggregation. […] Our ABD-L253P to actin co-sedimentation assay is unlikely to be sensitive to ABD aggregation, as it is set up to monitor maximal sedimentation of ABD-L253P with actin at ˜90% ABD-L253P co-sedimenting. To directly measure the impact of 10 μM Hit compounds on ABD aggregation, we repeated the ABD-actin co-sedimentation without actin present.

HEK293-6E cells = assay: Trypan blue cell viability assay; type: cell-based; details: 3 μM, 3 hrs
Procedure: HEK293-6E cell viability was measured using trypan blue (0.03%) staining and a Countess Automated Cell counter (Invitrogen). Non-transfected HEK293-6E cells were spun at 100×g for 5 min at 21° C., and resuspended in 10 mL of PBS. The centrifugation and resuspension were repeated twice more. Final cell concentration was 1×10^6 cells/mL. Cells were incubated with 2% DMSO, or 3-50 μM compound (as indicated) for 3 hrs at room temperature (21° C.). After addition of 100 μL of 0.06% trypan blue solution in PBS, 10 μL was loaded on a slide and injected into the cell counter, and cell viability was measured.

[1] = target: T2, ternary complex consisting of GFP-ABD-L253P, Lifeact-mCherry, and actin (Homo sapiens, UniProt O15020, L253P); assay: Primary live-cell time-resolved FRET assay (GFP-ABD-L253P plus Lifeact-mCherry); type: cell-based; details: 12-point concentration response 0.01 to 30 μM, 1536-well plates, average of 3 plates; read-out: EC50 of FRET reduction
T2 construct: L252P β-III-spectrin (human) ABD residues 1-284; expressed in transfected cells; host or cells: HEK293-6E, pTT5 vector, transient
T2 sequence (O15020 1-284 L253P, one chain of several): as the sequence (O15020 1-284 L253P) above

actin = actin sedimentation assay; read-out: previously reported affinity value; cited from earlier work
[2] = target: T3, Lifeact-mCherry binding to F-actin (Oryctolagus cuniculus, UniProt P68135); assay: F-actin and Lifeact-mCherry co-sedimentation assay; parameters: species or system New Zealand white rabbit (Oryctolagus cuniculus); details: 3 μM, 2 μM Lifeact-mCherry, 30 μM F-actin
T3 construct: Actin was purified from acetone powder derived from the psoas muscle; made in house; host or cells: actin from rabbit psoas muscle; Lifeact-mCherry from E. coli, pE-SUMOpro
Procedure: Actin was purified from acetone powder derived from the psoas muscle of New Zealand white rabbit (Oryctolagus cuniculus). Filamentous (F)-actin was stored for up to 3 days on ice before use in binding assays. Within an hour of the binding assay, the F-actin was clarified at 100,000×g at 4° C. for 10 min prior to setting up binding assays. The L253P β-III-spectrin ABD was expressed in E. coli BL21(DE3) (Novagen). The ABD was purified and the His-SUMO tag proteolytically removed, as previously described, except size-exclusion chromatography was not performed due to the high purity of the ABD protein. Lifeact-mCherry protein was similarly prepared. A Bradford assay was performed to determine clarified F-actin and ABD protein concentrations.
F-actin and ABD binding assays were performed as previously described. In brief, binding assays used 1 μM ABD protein, 1 μM F-actin and 1-50 μM compound (as indicated) or DMSO control for a total reaction volume of 60 μL in F-buffer containing 10 mM Tris, pH 7.5, 150 mM NaCl, 0.5 mM ATP, 2 mM MgCl2, and 1 mM DTT. Following 30 min incubation at room temperature (21° C.). F-actin was pelleted using centrifugation at 100,000×g at 25° C. for 30 min. Unbound ABD in the supernatant was measured following SDS-PAGE and Coomassie blue staining in accord. In addition, control co-sedimentations assays that lacked actin were performed to test if compounds cause ABD aggregation. F-actin and Lifeact-mCherry binding assays were undertaken with 2 μM Lifeact-mCherry, 30 μM F-actin and 1-50 μM compound (as indicated) or DMSO control for a total reaction volume of 80 μL in F-buffer. For a no-actin binding control, an assay sample with no F-actin was also set up. Binding reactions were allowed to reach equilibrium at room temperature (21° C.) for 30 min and then F-actin was pelleted by centrifugation at 100,000×g at 25° C. for 30 min. The amount of unbound Lifeact-mCherry was sampled by loading 7 μL of spin supernatant on a low volume black bottom 384-well plate (Greiner). Amount of mCherry was determined by acquiring fluorescence spectrum peak intensity at ˜600 nm using a spectral unmixing plate reader (Fluorescence Innovations, Inc) equipped with a 532 nm laser (Laserglow Technologies, Ontario, Canada) for excitation, 532 nm longpass filter for emission, and PMT for emission detection. The fraction of Lifeact-mCherry bound to F-actin was determined by subtracting from one the fraction of supernatant fluorescence intensity relative to the no-actin control sample, using the following equation:
[formula] • Where Fcontrol/DMSO is the peak mCherry fluorescence of assay samples containing compound or DMSO control, and Fno-actin is the peak mCherry fluorescence of assay samples that contained no F-actin. 2.9 Trypan Blue Cell Viability Assays

CO[C@H]1C[C@H](CC[C@H](C)[C@H](O)[C@H](C)[C@H]2OC(=O)/C=C/C(C)=C/C[C@H](O)C[C@@H]3C=CC[C@@H](C[C@H](OC)[C@@H](C)[C@@H](O)C[C@@H](O)[C@H](C)[C@@H]([C@@H](C)[C@@H](O)[C@@H](C)CC[C@H]4C[C@H](OC)C[C@H](C)O4)OC(=O)/C=C/C(C)=C/C[C@H](O)C[C@@H]4C=CC[C@@H](C[C@H](OC)[C@@H](C)[C@@H](O)C[C@@H](O)[C@@H]2C)O4)O3)O[C@@H](C)C1 [swinholide A]
ABD sedimentation without actin (ABD-L253P): does not alter ABD sedimentation | effect on HEK293-6E cell viability (HEK293-6E cells): did not significantly alter and not | EC50 [1]: 264 nM | Kd (actin): 50 nM | effect on Lifeact-mCherry binding with actin [2]: did reduce; also recorded: reduce Lifeact-mCherry binding with actin
